The values that follow come from patent US8906909B2 (Curis, Inc., priority 2009, dated 2014).

Each structure is given as a SMILES string. Where only a bound is given, the exact number is not on record here.

Data set [1] deals with HDACs (HeLa cell nuclear extracts). Kind of data set: HDAC enzymatic activity, Biomol Color de Lys system. The data set is classed as biochemical. The method in brief:
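IC50 from sigmoidal dose-response fits of fluorescence (Ex 350–380, Em 440–460 nm). Compounds in DMSO dilution series incubated 1 h at 25 °C with HeLa nuclear extract HDACs and colorimetric substrate, pH 8.0 Tris/Cl buffer with NaCl, KCl, MgCl2, before developer termination.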

The compound `CN(Cc1cc2nc(-c3cccc4[nH]ncc34)nc(Nc3ccccn3)c2s1)c1ncc(C(=O)NO)cn1` [Compound 168, 2-(((2-(1H-indazol-4-yl)-4-(pyridin-2-ylamino)thieno[3,2-d]pyrimidin-6-yl)methyl)(methyl)amino)-N-hydroxypyrimidine-5-carboxamide] had a melting point of 200 to 203 °C. In data set [1], this compound showed an IC50 of less than 100 nM.

In the case of `O=C(CCCCNCc1cc2nc(-c3cccc4[nH]ncc34)nc(N3CCOCC3)c2s1)NO` [Compound 42, 5-((2-(1H-indazol-4-yl)-4-morpholinothieno[3,2-d]pyrimidin-6-yl)methylamino)-N-hydroxypentanamide], the melting point was in the range of 145 to 147 °C. The half-inhibitory concentration (IC50) in data set [1] was less than 100 nM.

Compound `CN(Cc1cc2nc(-c3ccc(OCCO)nc3)nc(N3CCOCC3)c2s1)c1ncc(C(=O)NO)cn1` [Compound 256, N-Hydroxy-2-(((2-(6-(2-hydroxyethoxy)pyridin-3-yl)-4-morpholinothieno[3,2-d]pyrimidin-6-yl)methyl)(methyl)amino)pyrimidine-5-carboxamide] gave a melting point of 143 to 145 °C. In data set [1], this compound showed a half-maximal inhibitory concentration (IC50) of less than 100 nM.

`CNc1ncc(-c2nc(N3CCOCC3)c3sc(NCCCCC(=O)NO)cc3n2)cn1` [Compound 227, N-Hydroxy-5-(2-(2-(methylamino)pyrimidin-5-yl)-4-morpholinothieno[3,2-d]pyrimidin-6-ylamino)pentanamide] came in with a melting point of 206 to 210 °C. The compound further returned a 50% inhibitory concentration (IC50) in data set [1] of less than 100 nM.

Compound `CN(Cc1cc2nc(-c3ccc(F)cc3)nc(N3CCOCC3)c2s1)c1ncc(C(=O)NO)cn1` [Compound 200, 2-(((2-(4-fluorophenyl)-4-morpholinothieno[3,2-d]pyrimidin-6-yl)methyl)(methyl)amino)-N-hydroxypyrimidine-5-carboxamide] yielded a melting point of 168 to 170 °C. The same compound registered an IC50 in data set [1] of less than 100 nM.

Regarding `Nc1ncc(-c2nc(N3CCOCC3)c3sc(NCCCCCC(=O)NO)cc3n2)cn1` [Compound 232, 6-[2-(2-Amino-pyrimidin-5-yl)-4-morpholin-4-yl-thieno[3,2-d]pyrimidin-6-ylamino]-hexanoic acid hydroxyamide], the melting point lay within 220 to 225 °C. Also, the concentration for half-maximal inhibition (IC50) in data set [1] was less than 100 nM.

Consider `CN(C)c1ccc(-c2nc(N3CCOCC3)c3sc(CN(C)c4ncc(C(=O)NO)cn4)cc3n2)cc1` [Compound 152, 2-(((2-(4-(dimethylamino)phenyl)-4-morpholinothieno[3,2-d]pyrimidin-6-yl)methyl)(methyl)amino)-N-hydroxypyrimidine-5-carboxamide], for which the melting point was 208 to 210 °C. In addition, the concentration for half-maximal inhibition (IC50) in data set [1] is less than 100 nM.

Consider `CNCCOc1ccc(-c2nc(N3CCOCC3)c3sc(CN(C)c4ncc(C(=O)NO)cn4)cc3n2)cn1` [Compound 258, N-Hydroxy-2-(methyl((2-(6-(2-(methylamino)ethoxy)pyridin-3-yl)-4-morpholinothieno[3,2-d]pyrimidin-6-yl)methyl)amino)pyrimidine-5-carboxamide], for which the melting point is 170 to 175 °C. The compound also registered an IC50 in data set [1] of less than 100 nM.

The compound `CN(Cc1cc2nc(-c3cccc(CN)c3)nc(N3CCOCC3)c2s1)c1ncc(C(=O)NO)cn1` [Compound 137, 2-(((2-(3-(aminomethyl)phenyl)-4-morpholinothieno[3,2-d]pyrimidin-6-yl)methyl)(methyl)amino)-N-hydroxypyrimidine-5-carboxamide] showed a melting point of 173 to 176 °C. Further, in data set [1], the half-maximal inhibitory concentration (IC50) was less than 100 nM.

Take `Nc1ccc(-c2nc(N3CCOCC3)c3sc(C(=O)NCC4CCN(c5ncc(C(=O)NO)cn5)CC4)cc3n2)cc1` [Compound 307, 2-(4-Aminophenyl)-N-((1-(5-(hydroxycarbamoyl)pyrimidin-2-yl)piperidin-4-yl)methyl)-4-morpholinothieno[3,2-d]pyrimidine-6-carboxamide]: the melting point was in the range of 232 to 238 °C. The IC50 in data set [1] was less than 100 nM.

Regarding `CN(CCCCC(=O)NO)Cc1cc2nc(-c3cccc4[nH]ncc34)nc(N3CCOCC3)c2s1` [Compound 102, 5-(((2-(1H-indazol-4-yl)-4-morpholinothieno[3,2-d]pyrimidin-6-yl)methyl)(methyl)amino)-N-hydroxypentanamide], the melting point fell in the range of 120 to 122 °C. For the same compound, the IC50 in data set [1] fell in the range of 100 to 1000 nM.

With `CS(=O)(=O)N1CCN(Cc2cc3nc(-c4cccc5[nH]ncc45)nc(N4CCN(CCCCC(=O)NO)CC4)c3s2)CC1` [Compound 30, 5-(4-(2-(1H-indazol-4-yl)-6-((4-(methylsulfonyl)piperazin-1-yl)methyl)thieno[3,2-d]pyrimidin-4-yl)piperazin-1-yl)-N-hydroxypentanamide], the melting point was 142 to 145 °C. Besides, the IC50 in data set [1] lay in the range of 100 to 1000 nM.

In turn, `CN(Cc1cc2nc(-c3ccc(Cl)cc3)nc(N3CCOCC3)c2s1)c1ncc(C(=O)NO)cn1` [Compound 147, 2-(((2-(4-chlorophenyl)-4-morpholinothieno[3,2-d]pyrimidin-6-yl)methyl)(methyl)amino)-N-hydroxypyrimidine-5-carboxamide] came in with a melting point of 153 °C. Further, the concentration for half-maximal inhibition (IC50) in data set [1] was less than 100 nM.

Regarding `CN(Cc1cc2nc(-c3cc(F)c(N)c(F)c3)nc(N3CCOCC3)c2s1)c1ncc(C(=O)NO)cn1` [Compound 282, 2-(((2-(4-Amino-3,5-difluorophenyl)-4-morpholinothieno[3,2-d]pyrimidin-6-yl)methyl)(methyl)amino)-N-hydroxypyrimidine-5-carboxamide], the melting point lay within 190 to 193 °C. The compound further showed an IC50 in data set [1] of less than 100 nM.

In turn, `COc1ccc(-c2nc(N3CCOCC3)c3sc(NCCCCCC(=O)NO)cc3n2)cn1` [Compound 233, 6-[2-(6-Methoxy-pyridin-3-yl)-4-morpholin-4-yl-thieno[3,2-d]pyrimidin-6-ylamino]-hexanoic acid hydroxyamide] registered a melting point of 125 to 130 °C. The same compound displayed a concentration for half-maximal inhibition (IC50) in data set [1] of less than 100 nM.

On to `CCc1ncc(-c2nc(N3CCOCC3)c3sc(CN(C)c4ncc(C(=O)NO)cn4)cc3n2)cn1` [Compound 121, 2-(((2-(2-ethylpyrimidin-5-yl)-4-morpholinothieno[3,2-d]pyrimidin-6-yl)methyl)(methyl)amino)-N-hydroxypyrimidine-5-carboxamide], for which the melting point lay in the range of 153 to 156 °C. The compound further returned an IC50 in data set [1] of less than 100 nM.

Compound `Cc1ccc(-c2nc(N3CCOCC3)c3sc(CN(C)c4ncc(C(=O)NO)cn4)cc3n2)cc1` [Compound 201, N-hydroxy-2-(methyl((4-morpholino-2-p-tolylthieno[3,2-d]pyrimidin-6-yl)methyl)amino)pyrimidine-5-carboxamide] returned a melting point of 170 to 172 °C. The same compound displayed an IC50 in data set [1] of less than 100 nM.

Compound `Nc1ncc(-c2nc(N3CCOCC3)c3sc(NS(=O)(=O)c4cccc(/C=C/C(=O)NO)c4)cc3n2)cn1` [Compound 218, (E)-3-(3-(N-(2-(2-aminopyrimidin-5-yl)-4-morpholinothieno[3,2-d]pyrimidin-6-yl)sulfamoyl)phenyl)-N-hydroxyacrylamide] showed a melting point greater than 300 °C. The same compound showed a half-maximal inhibitory concentration (IC50) in data set [1] of less than 100 nM.

As for `CN(Cc1cc2nc(-c3cnn(C)c3)nc(N3CCOCC3)c2s1)c1ncc(C(=O)NO)cn1` [Compound 246, N-Hydroxy-2-(methyl((2-(1-methyl-1H-pyrazol-4-yl)-4-morpholinothieno[3,2-d]pyrimidin-6-yl)methyl)amino)pyrimidine-5-carboxamide], the melting point fell in the range of 164 to 169 °C. In data set [1], the IC50 is less than 100 nM.

Turning to `CN(C)CCOc1ccc(-c2nc(N3CCOCC3)c3sc(CN(C)c4ncc(C(=O)NO)cn4)cc3n2)cn1` [Compound 257, 2-(((2-(6-(2-(Dimethylamino)ethoxy)pyridin-3-yl)-4-morpholinothieno[3,2-d]pyrimidin-6-yl)methyl)(methyl)amino)-N-hydroxypyrimidine-5-carboxamide], the melting point was in the range of 140 to 143 °C. The compound also came in with a 50% inhibitory concentration (IC50) in data set [1] of less than 100 nM.

`Cc1nc2ccc(-c3nc(N4CCOCC4)c4sc(CN(C)c5ncc(C(=O)NO)cn5)cc4n3)cc2[nH]1` [Compound 199, N-hydroxy-2-(methyl((2-(2-methyl-3H-benzo[d]imidazol-5-yl)-4-morpholinothieno[3,2-d]pyrimidin-6-yl)methyl)amino)pyrimidine-5-carboxamide] showed a melting point of 230 to 233 °C. In data set [1], this compound gave a half-inhibitory concentration (IC50) of less than 100 nM.

Compound `CN(C)c1cccc(-c2nc(N3CCOCC3)c3sc(CN(C)c4ncc(C(=O)NO)cn4)cc3n2)c1` [Compound 108, 2-(((2-(3-(dimethylamino)phenyl)-4-morpholinothieno[3,2-d]pyrimidin-6-yl)methyl)(methyl)amino)-N-hydroxypyrimidine-5-carboxamide] yielded a melting point of 172 to 175 °C. For the same compound, in data set [1], the IC50 was less than 100 nM.

The compound `CCN(CC)c1ccc(-c2nc(N3CCOCC3)c3sc(CN(C)c4ncc(C(=O)NO)cn4)cc3n2)cc1` [Compound 154, 2-(((2-(4-(Diethylamino)phenyl)-4-morpholinothieno[3,2-d]pyrimidin-6-yl)methyl)(methyl)amino)-N-hydroxypyrimidine-5-carboxamide] had a melting point of 192 to 196 °C. Besides, in data set [1], the half-maximal inhibitory concentration (IC50) is less than 100 nM.

Take `CS(=O)(=O)N1CCN(Cc2cc3nc(-c4ccc(OCCCCCC(=O)NO)cc4)nc(N4CCOCC4)c3s2)CC1` [Compound 320, N-Hydroxy-6-(4-(6-((4-(methylsulfonyl)piperazin-1-yl)methyl)-4-morpholinothieno[3,2-d]pyrimidin-2-yl)phenoxy)hexanamide]: the melting point lay within 140 to 142 °C. The half-inhibitory concentration (IC50) in data set [1] lay within 100 to 1000 nM.

Regarding `CC(O)c1ccc(F)c(-c2nc(N3CCOCC3)c3sc(CN(C)c4ncc(C(=O)NO)cn4)cc3n2)c1` (centres unmarked) [Compound 295, 2-(((2-(2-Fluoro-5-(1-hydroxyethyl)phenyl)-4-morpholinothieno[3,2-d]pyrimidin-6-yl)methyl)(methyl)amino)-N-hydroxypyrimidine-5-carboxamide], the melting point was 230 to 235 °C. The same compound registered a concentration for half-maximal inhibition (IC50) in data set [1] of less than 100 nM.
